Assay results from ChEMBL document CHEMBL2040790 (Bioorg Med Chem Lett, 2012).

What was measured:
Vaccinia virus = assay: Antiviral activity against Vaccinia virus; format: functional, organism-based; settings: Orthopoxvirus vaccinia
La Crosse virus = assay: Antiviral activity against La Crosse virus infected in african green monkey Vero cells assessed as inhibition of virus-induced cytopathic effect by fluorometric analysis; format: functional, organism-based

Row | SMILES | EC50 (Vaccinia virus) | EC50 (La Crosse virus)
1 | CC(C)(C)c1ccc(C(=O)NC(=S)Nc2ccc(S(=O)(=O)N3CCCCC3)cc2)cc1 | > 25 µM | > 25 µM
2 | CC(C)(C)c1ccc(C(=O)NC(=S)Nc2ccc([N+](=O)[O-])cc2)cc1 | 4.08 µM | > 25 µM
3 | COc1cc(NC(=S)NC(=O)c2ccc(C(C)(C)C)cc2)ccc1NC(=O)c1ccc2nc[nH]c2c1 | > 25 µM | > 25 µM
4 | Cc1ccccc1NC(=S)NC(=O)c1ccc(C(C)(C)C)cc1 | 0.83 µM | 0.63 µM
5 | COc1cc(NC(=S)NC(=O)c2ccc(C(C)(C)C)cc2)ccc1NC(=N)c1ccccc1Cl | 1.75 µM | 2.06 µM
6 | COc1cc(NC(=S)NC(=O)c2ccc(C(C)(C)C)cc2)ccc1NCc1ccccc1Cl | 0.34 µM | 0.2 µM
7 | CC(C)(C)c1ccc(C(=O)NC(=S)NC2CCCCC2)cc1 | 4.92 µM | 3.71 µM
8 | COc1cc(NC(=S)NC(=O)c2ccc(C(C)(C)C)cc2)ccc1NC(=O)c1cccnc1 | 1.72 µM | –
9 | COc1cc(NC(=S)NC(=O)c2ccc(C(C)(C)C)cc2)ccc1NC(=O)c1ncccn1 | > 25 µM | > 25 µM
10 | COc1cc(N/C(=N/C(=O)c2ccc(C(C)(C)C)cc2)SCC(=O)OC(C)(C)C)ccc1NC(=O)c1ccccc1Cl | > 25 µM | > 25 µM
11 | COc1cc(NC(=S)NCc2ccc(C(C)(C)C)cc2)ccc1NC(=O)c1ccccc1Cl | > 25 µM | > 25 µM
12 | CC(C)(C)c1ccc(C(=O)NC(=S)Nc2cccc(C(=O)O)c2)cc1 | > 25 µM | > 25 µM
13 | CN(C)c1ccc(NC(=S)NC(=O)c2ccc(C(C)(C)C)cc2)cc1 | 2.43 µM | –
14 | COc1cc(NC(=S)NC(=O)c2ccc(C(C)(C)C)cc2)ccc1NC(C)=O | 3.27 µM | 1.35 µM
15 | CCN(C(=S)NC(=O)c1ccc(C(C)(C)C)cc1)c1ccc(NC(=O)c2ccccc2Cl)c(OC)c1 | 10.1 µM | > 25 µM
16 | Cc1cccc(NC(=S)NC(=O)c2ccc(C(C)(C)C)cc2)c1Cl | 1.83 µM | 1.17 µM
17 | COc1cccc(NC(=S)NC(=O)c2ccc(C(C)(C)C)cc2)c1 | 4.07 µM | > 25 µM
18 | COc1cc(NC(=S)NC(=O)c2ccc(C(C)(C)C)cc2)ccc1NC(=O)c1ncc[nH]1 | > 25 µM | > 25 µM
19 | CCS/C(=N\C(=O)c1ccc(C(C)(C)C)cc1)Nc1ccc(NC(=O)c2ccccc2Cl)c(OC)c1 | 0.23 µM | 0.3 µM
20 | COc1cc(NC(=N)NC(=O)c2ccc(C(C)(C)C)cc2)ccc1NC(=O)c1ccccc1Cl | > 25 µM | –
21 | COc1cc(NC(=S)NC(=O)c2ccc(C(C)(C)C)cc2)ccc1NC(=O)CCN(C)C | > 25 µM | > 25 µM
22 | CC(C)(C)c1ccc(C(=O)NC(=S)Nc2cccc(CN)c2)cc1 | > 25 µM | > 25 µM
23 | CC(C)(C)c1ccc(C(=O)NC(=S)Nc2ccc(S(=O)(=O)NC3CCCCC3)cc2)cc1 | > 25 µM | > 25 µM

Row | SMILES | EC50 (Vaccinia virus) | EC50 (La Crosse virus)
24 | COc1ccc(NC(=S)NC(=O)c2ccc(C(C)(C)C)cc2)cc1 | 2.39 µM | > 25 µM
25 | CC(C)(C)c1ccc(C(=O)NC(=S)Nc2ccc(Nc3ccccc3)cc2)cc1 | 0.82 µM | 1.7 µM
26 | COc1cc(NC(=S)NC(=O)c2ccc(C(C)(C)C)cc2)ccc1NC(=O)CCC(=O)O | > 25 µM | > 25 µM
27 | CC(C)(C)c1ccc(C(=O)NC(=S)Nc2ccccc2[N+](=O)[O-])cc1 | 3.64 µM | 3.7 µM
28 | COc1cc(NC(=S)NC(=O)c2ccc(C(C)(C)C)cc2)ccc1NC(=O)c1c[nH]cn1 | > 25 µM | > 25 µM
29 | CC(C)(C)c1ccc(C(=O)NC(=S)Nc2ccc(Cl)cc2Cl)cc1 | > 25 µM | > 25 µM
30 | CC(C)(C)c1ccc(C(=O)NC(=S)Nc2ccc(NC(=O)c3ccccc3Cl)c(O)c2)cc1 | 0.23 µM | 0.21 µM
31 | CC(C)(C)c1ccc(C(=N)NC(=S)Nc2ccccc2Cl)cc1 | > 25 µM | > 25 µM
32 | CC(C)(C)c1ccc(C(=O)NC(=S)Nc2ccc(N)cc2Cl)cc1 | 0.62 µM | 0.75 µM
33 | COC(=O)c1cnc(NC(=S)NC(=O)c2ccc(C(C)(C)C)cc2)s1 | > 25 µM | > 25 µM
34 | COc1cc(NC(=S)NC(=O)c2ccc(C(C)(C)C)cc2)ccc1NC(=O)c1ccccn1 | > 25 µM | > 25 µM
35 | COc1cc(N/C(=N/C#N)NC(=O)c2ccc(C(C)(C)C)cc2)ccc1NC(=O)c1ccccc1Cl | > 25 µM | –
36 | COc1cc(NC(=S)NC(=O)c2ccc(C(C)(C)C)cc2)ccc1NC(=O)c1ccccc1N | 2.61 µM | > 25 µM
37 | COc1cc(NC(=S)NC(=O)c2ccc(C(C)(C)C)cc2)ccc1NC(=O)CC(=O)O | > 25 µM | > 25 µM
38 | CC(C)(C)c1ccc(C(=O)NC(=S)Nc2ccc(Nc3ccncc3)cc2)cc1 | > 25 µM | 7.7 µM
39 | CC(C)(C)c1ccc(C(=O)NC(=S)Nc2cc(OC(F)(F)F)ccc2Cl)cc1 | 1.9 µM | > 25 µM
40 | CC(C)(C)c1ccc(C(=O)NC(=S)Nc2cccc(Cl)c2)cc1 | 1.58 µM | 4.16 µM
41 | CN(Cc1ccccc1)S(=O)(=O)c1ccc(NC(=S)NC(=O)c2ccc(C(C)(C)C)cc2)cc1 | > 25 µM | > 25 µM
42 | CC(C)(C)c1ccc(C(=O)NC(=S)Nc2ccccn2)cc1 | > 25 µM | > 25 µM
43 | COc1ccccc1NC(=S)NC(=O)c1ccc(C(C)(C)C)cc1 | 1.39 µM | 1.15 µM
44 | COc1cc(NC(=S)NC(=O)c2ccc(C(C)(C)C)cc2)ccc1NC(=O)c1cnccn1 | > 25 µM | > 25 µM
45 | COc1cc(NC(=S)NC(=O)c2ccc(C(C)(C)C)cc2)ccc1NC(=O)CCCCN(C)C | > 25 µM | > 25 µM
46 | CC(C)(C)c1ccc(C(=O)NC(=S)Nc2ccc(S(=O)(=O)Nc3nccs3)cc2)cc1 | > 25 µM | > 25 µM

Row | SMILES | EC50 (Vaccinia virus) | EC50 (La Crosse virus)
47 | COc1cc(NC(=S)NC(=O)c2ccc(C(C)(C)C)cc2)ccc1NC(N)=O | > 25 µM | 4.86 µM
48 | COc1cc(NC(=S)NC(=O)c2ccc(C(C)(C)C)cc2)ccc1NC(=O)c1cccc(N)c1 | > 25 µM | > 25 µM
49 | COc1cc(NC(=S)NC(=O)c2ccc(C(C)(C)C)cc2)ccc1NC(=O)c1ccncc1 | 2.03 µM | –
50 | COc1cc(N/C(=N/C(=O)c2ccc(C(C)(C)C)cc2)SCCN(C)C)ccc1NC(=O)c1ccccc1Cl | > 25 µM | > 25 µM
51 | Cc1ccc(C)c(NC(=S)NC(=O)c2ccc(C(C)(C)C)cc2)c1 | 2.86 µM | > 25 µM
52 | CC(C)(C)c1ccc(C(=O)NC(=S)Nc2nc(-c3cccc([N+](=O)[O-])c3)cs2)cc1 | > 25 µM | > 25 µM
53 | CC(C)(C)c1ccc(C(=O)NC(=S)Nc2ccc(C(=O)O)cc2)cc1 | > 25 µM | > 25 µM
54 | CC(C)(C)c1ccc(C(=O)NC(=S)Nc2cccnc2)cc1 | > 25 µM | > 25 µM
55 | CC(C)(C)c1ccc(C(=O)NC(=S)Nc2cc(C(F)(F)F)ccc2Cl)cc1 | 1 µM | 0.6 µM
56 | COc1ccc(NC(=S)NC(=O)c2ccc(C(C)(C)C)cc2)cc1NC(=O)c1ccccc1Cl | > 25 µM | > 25 µM
57 | CC(C)(C)c1ccc(C(=O)NC(=S)Nc2ccc(Cl)cc2)cc1 | > 25 µM | > 25 µM
58 | CCS/C(=N\C(=O)c1ccc(C(C)(C)C)cc1)Nc1ccccc1Cl | 1.91 µM | 0.51 µM
59 | CNc1ccc(NC(=S)NC(=O)c2ccc(C(C)(C)C)cc2)cc1 | 1.16 µM | 1.45 µM
60 | COc1cc(NC(=S)NC(=O)c2ccc(C(C)(C)C)cc2)ccc1NC(=N)N | > 25 µM | > 25 µM
61 | CC(C)(C)c1ccc(C(=O)NC(=S)Nc2ccc(NC(=O)c3ccccc3)cc2Cl)cc1 | 0.16 µM | 0.08 µM
62 | Cc1ccc(NC(=S)NC(=O)c2ccc(C(C)(C)C)cc2)cc1 | 1.91 µM | 4.86 µM
63 | COc1ccc(-c2csc(NC(=S)NC(=O)c3ccc(C(C)(C)C)cc3)n2)cc1OC | > 25 µM | > 25 µM
64 | CC(C)(C)c1ccc(C(=O)NC(=S)Nc2ccc(Nc3ccccn3)cc2)cc1 | > 25 µM | > 25 µM
65 | Cc1cccc(NC(=S)NC(=O)c2ccc(C(C)(C)C)cc2)c1 | 1.01 µM | 1.33 µM
66 | Cc1ccc(NC(=S)NC(=O)c2ccc(C(C)(C)C)cc2)c(C)c1 | 1.06 µM | 0.88 µM
67 | CC(C)(C)c1ccc(C(=O)NC(=S)Nc2cccc([N+](=O)[O-])c2)cc1 | > 25 µM | > 25 µM
68 | COC(=O)CC(=O)Nc1ccc(NC(=S)NC(=O)c2ccc(C(C)(C)C)cc2)cc1OC | 18.6 µM | > 25 µM
